Experimental data from patent US5648366A, “Substituted pyrrolidin-3-yl-alkyl-piperidines” (Merrell Pharmaceuticals Inc., priority 1995, dated 1997).
Structures can show the parent of a compound that is named as a salt.

Legend:
NK1 receptor [1] = biological target: T1, NK1 receptor (Cavia porcellus, UniProt P30547); assay: Antagonism of iodinated tachykinin (125I-substance P) binding to NK1 receptor in guinea pig lungs; parameters: tissue Keystone Biologicals, Cleveland, Ohio; host or cells: guinea pig lung membranes; details: guinea pig lungs; mean of several experiments; read-out: NK-1 IC50
T1 sequence (P30547 whole entry): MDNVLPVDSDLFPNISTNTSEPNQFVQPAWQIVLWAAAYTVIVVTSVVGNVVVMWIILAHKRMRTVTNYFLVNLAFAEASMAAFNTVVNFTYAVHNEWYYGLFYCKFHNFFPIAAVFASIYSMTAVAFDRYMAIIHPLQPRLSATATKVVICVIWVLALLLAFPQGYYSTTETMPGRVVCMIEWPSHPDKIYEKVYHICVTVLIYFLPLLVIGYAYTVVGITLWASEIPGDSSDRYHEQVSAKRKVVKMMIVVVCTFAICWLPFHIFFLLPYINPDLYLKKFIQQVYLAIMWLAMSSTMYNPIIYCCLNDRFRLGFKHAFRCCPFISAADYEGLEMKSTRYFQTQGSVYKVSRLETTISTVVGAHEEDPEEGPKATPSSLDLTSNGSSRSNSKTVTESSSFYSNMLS
Protocol: ANTAGONISM OF IODINATED TACHYKININ BINDING TO NK1 AND NK2 RECEPTORS BY PUTATIVE ANTAGONISTS
The NK1 receptor affinity of proposed tachykinin antagonists was evaluated in guinea pig lungs (Keystone Biologicals, Cleveland, Ohio), affinity for the NK2 receptor evaluated in HSKR-1 cells (which are mouse 3T3 fibroblasts expressing the human jejunal NK2 receptor) and NK-3 receptor affinity was evaluated in freshly collected guinea pig cerebral cortex. Tissues or cells were homogenized with a Polytron in 15 volumes of 50 mM Tris-HCl buffer (pH 7.4, 4° C.) and centrifuged. The pellet was resuspended in Tris-HCl buffer and was centrifuged; the pellet was washed twice by resuspension. The final pellet was resuspended at a concentration of 40 mg/ml for tissues (guinea pig lung and cerebral cortex) and 20 mg/ml for cells in incubation buffer and remained at room temperature for at least 15 min prior to use. Receptor binding was initiated by addition of 250 ul membrane preparation in duplicate to 0.1 nM of the following radioligands: ^125 I-Bolton Hunter Lys-3 labeled substance P; ^125 iodohistidyl-1-neurokinin A; and ^125 I-Bolton Hunter labeled Lys-4 eledoisin in a final volume of 500 ul of buffer containing 50 mM Tris-HCl (pH 7.4 at room temperature), 0.1% bovine serum albumin, 2 mM MnCl2, 40 ug/ml bacitracin, 4 µg/ml leupeptin and chymostatin, 1 μM thiorphan and various doses of the putative tachykinin antagonists. Incubations were performed at room temperature for 90 min (NK1 receptor assays) or 2 hr (NK2 and NK3 receptor assays); binding was terminated by addition of 50 mM Tris-HCl buffer (pH 7.4, 4° C.) and filtration under vacuum through GF/B filters presoaked with 0.1% polyethyleneimine (NK1 receptor assays) or 0.5% bovine serum albumin (NK2 and NK3 receptor assays). Filter bound radioactivity was quantitated in a gamma counter. Nonspecific binding was defined as binding in the presence of 1 μM substance P, neurokinin A, or eledoisin. Specific binding was calculated by subtracting nonspecific binding from total binding. Competition of iodinated SP, NKA, or eledoisin binding by test compounds or standards was expressed as a percentage of this maximum competition. IC50 values (concentration required to inhibit 50% of receptor binding) were generated for each of the test compounds by nonlinear regression using an iterative curve fitting program (GraphPAD Inplot, San Diego, Calif.).

NK1 receptor [2] = biological target: T1, NK1 receptor; assay: Antagonism of SP-induced plasma protein extravasation in guinea pig trachea; assay type: in vivo; parameters: SP-induced plasma protein extravasation in guinea pig trachea; from tissue; host or cells: living guinea pig; trachea and primary bronchi; details: i.v.; Example 3 versus Example 20A
Protocol: ANTAGONISM OF SP-INDUCED PLASMA PROTEIN EXTRAVASATION IN GUINEA PIG TRACHEA
SP-induced protein leakage through postcapillary venules was assessed by measuring Evans Blue dye accumulation in guinea pig trachea. Animals were anesthetized with pentobarbital then injected with Evans Blue dye (20 mg/kg, i.v., prepared in 0.9% NaCl solution). One minute after dye administration, the antagonist was administered (i.v.) followed by SP (0.3 nmole/kg, i.v.) and, after 5 min, excess dye removed from the circulation by transcardiac perfusion with 50 ml 0.9% NaCl solution. The trachea and primary bronchi were removed, blotted dry and weighed. Dye quantitation was performed spectrophotometrically ([…]) after extracting tissues in formamide for 24 hr at 50° C. Values were subtracted from background (dye only, no agonist). ED50 (dose of compound which inhibits SP-induced plasma protein extravasation by 50%) was calculated from linear regression analysis.

NK2 receptor = assay: Antagonism of NKA aerosol induced respiratory effects in conscious guinea pigs; assay type: in vivo, guinea pig; details: 20 min prior to NKA aerosol (0.05%); for DYSPNEA ONSET: mean and SEM
Protocol: (§1) ANTAGONISM OF NKA AND CAPSAICIN INDUCED R[…] IN CONSCIOUS GUINEA PIGS
(§2) In vivo experiments were performed using male Duncan Hartley guinea pigs (250-350 g). Changes in conscious breathing patterns were monitored in four animals simultaneously using modified whole body plethysmography consisting of four small plexiglass boxes each connected to a reference box via Validyne DP 45-16 differential pressure transducers. The 4 boxes were equipped with an air supply line (also used for aerosol delivery) and an exhaust air line. Supply and exhaust lines were of the same length and narrow bore and arose from a common supply chamber and vented to a common exhaust chamber. This system was used to ensure that fluctuations in supply air and atmospheric pressure would remain in phase and be eliminated from the net signal by the differential pressure transducers. The analog pressure signals were digitalized via a Data Translation DT2821 A to D board. Data were collected at a rate of 100 samples/second/animal. Each cycle of pressure change was analyzed using the following parameters: rising and falling slope determined between minimum and maximum pressures, the ratio of rising over falling slope, and the magnitude of the change between initial trough pressure and peak cycle pressure. Using these values (and observing the animals) the pressure cycles were characterized into normal breaths, forced exhalations (apparent by abdominal heaving), significant respiratory events (SREs; usually coughs, less often sneezes or gasps which were characterized by transient, extremely large pressure increases which were distinguishable from noise) and movement/noise with a PCAT 286 running a System V UNIX operating system. Dyspnea was defined as a significant, sustained increase in plethysmograph pressure which was associated with an observable shift to labored breathing in the animal.
(§3) During the course of a typical experiment in which airway responsiveness to various bronchoconstricting agents was examined, aerosols were delivered for 19 min (0.33 ml/min) using a DeVilbiss Ultraneb 99 ultrasonic nebulizer and animals monitored during this time. Prior to nebulization, 1 min of resting breathing was collected to establish a baseline pressure. […] The vehicle for nebulization of all bronchoconstrictive agents was phosphate buffered saline (pH 7.4) which elicited no r[…] itself. Putative tachykinin antagonists were administered either (i.v.) 20 min prior to onset of aerosol exposure or orally 1 hour prior to onset (to guinea pigs after an overnight fast).
Table 6 illustrates the effects of the compounds of Example 3; Example 20A; and Example 5A on r[…] induced by NKA aerosol. […] These effects were dose dependent i.e. the higher the dose of compound, the greater attenuation of NKA-mediated effects.

NK1 and NK2 receptors = assay: Antagonism of capsaicin aerosol induced respiratory effects in conscious guinea pigs; assay type: in vivo, guinea pig; details: for SRE NUMBER (coughs/gasps): 19 min capsaicin exposure; for SRE NUMBER (coughs/gasps) / DYSPNEA ONSET / MAXIMUM PRESSURE INCREASE: mean and SEM; for DYSPNEA INCIDENCE / DYSPNEA ONSET / MAXIMUM PRESSURE INCREASE: capsaicin aerosol 0.001%
Protocol: as §1, §2, §3
Capsaicin aerosol is known to promote release of the tachykinins SP and NKA from sensory nerves in the airways of guinea pigs which may then act upon NK1 and NK2 receptors, respectively to elicit r[…]. The ability of the compounds of Example 3A; and Example 20A to attenuate capsaicin-induced r[…], shown in Table 7a, is inferred from their ability to reduce incidence of dyspnea, prolong the onset of the response and reduce the number of coughs/gasps which occur during aerosol exposure.

SMILES: NC(=O)C1(c2ccccc2)CCN(CCC2(c3ccc(Cl)c(Cl)c3)CCN(C(=O)c3ccccc3)C2)CC1 (stereo not drawn) [Example 1, 1-[2-[3-(3,4-dichloro-phenyl)-1-benzoyl-pyrrolidin-3-yl]-ethyl]-4-phenyl-piperidine-4-carboxylic acid amide]
- IC50 (NK1 receptor [1]): 270 nM

SMILES: COc1ccccc1CC(=O)N1CCC(CCN2CCC(C(N)=O)(c3ccccc3)CC2)(c2ccc(Cl)c(Cl)c2)C1 (stereo not drawn) [Example 4, 1-(2-[3-(3,4-dichloro-phenyl)-1-[2-(2-methoxy-phenyl)-acetyl]-pyrrolidin-3-yl]-ethyl)-4-phenyl-piperidine-4-carboxylic acid amide]
- IC50 (NK1 receptor [1]): 48 nM

SMILES: COc1cc(C(=O)N2CCC(CCN3CCC(C(N)=O)(c4ccccc4)CC3)(c3ccc(Cl)c(Cl)c3)C2)cc(OC)c1OC (single isomer, unassigned; (+)) [Example 20A, (+)-1-[2-[3-(3,4-dichloro-phenyl)-1-(3,4,-trimethoxy-benzoyl)-pyrrolidin-3-yl]-ethyl]-4-phenyl-piperidine-4-carboxylic acid amide hydrochloride]
- relative potency as NK-1 receptor antagonists (in words) (NK1 receptor [2]): equipotent
- DYSPNEA INCIDENCE (NK2 receptor; 1 mg/kg): 100%
- DYSPNEA ONSET (NK2 receptor; 1 mg/kg): 451 ± 30 s
- DYSPNEA INCIDENCE (NK2 receptor; 5 mg/kg): 90%
- DYSPNEA ONSET (NK2 receptor; 5 mg/kg): 706 ± 82 s
- DYSPNEA INCIDENCE (NK2 receptor; 10 mg/kg): 70%
- DYSPNEA ONSET (NK2 receptor; 10 mg/kg): 829 ± 105 s
- SRE NUMBER (coughs/gasps) (NK1 and NK2 receptors; 1 mg/kg intravenous): 9.9 ± 2.7
- DYSPNEA INCIDENCE (NK1 and NK2 receptors; 1 mg/kg intravenous): 77.8%
- DYSPNEA ONSET (NK1 and NK2 receptors; 1 mg/kg intravenous): 331 ± 22 s
- MAXIMUM PRESSURE INCREASE (NK1 and NK2 receptors; 1 mg/kg intravenous): 1.0 ± 0.1 mmH2 O
- SRE NUMBER (coughs/gasps) (NK1 and NK2 receptors; 2.5 mg/kg intravenous): 8.3 ± 1.6
- DYSPNEA INCIDENCE (NK1 and NK2 receptors; 2.5 mg/kg intravenous): 100%
- DYSPNEA ONSET (NK1 and NK2 receptors; 2.5 mg/kg intravenous): 426 ± 57 s
- MAXIMUM PRESSURE INCREASE (NK1 and NK2 receptors; 2.5 mg/kg intravenous): 0.6 ± 0.1 mmH2 O
- SRE NUMBER (coughs/gasps) (NK1 and NK2 receptors; 5 mg/kg intravenous): 4.4 ± 1.9
- DYSPNEA INCIDENCE (NK1 and NK2 receptors; 5 mg/kg intravenous): 44.4%
- DYSPNEA ONSET (NK1 and NK2 receptors; 5 mg/kg intravenous): 597 ± 186 s
- MAXIMUM PRESSURE INCREASE (NK1 and NK2 receptors; 5 mg/kg intravenous): 0.8 ± 0.06 mmH2 O
- SRE NUMBER (coughs/gasps) (NK1 and NK2 receptors; 10 mg/kg intravenous): 3.3 ± 1.1
- DYSPNEA INCIDENCE (NK1 and NK2 receptors; 10 mg/kg intravenous): 55.6%
- DYSPNEA ONSET (NK1 and NK2 receptors; 10 mg/kg intravenous): 592 ± 71 s
- MAXIMUM PRESSURE INCREASE (NK1 and NK2 receptors; 10 mg/kg intravenous): 0.8 ± 0.1 mmH2 O
- inhibition of endogenous tachykinins released by capsaicin aerosol (in words) (NK1 and NK2 receptors; guinea pig, in vivo): inhibit the endogenous tachykinins released by capsaicin aerosol

SMILES: COc1ccccc1C(=O)N1CCC(CCN2CCC(C(N)=O)(c3ccccc3)CC2)(c2ccc(Cl)c(Cl)c2)C1 (stereo not drawn) [Example 13, 1-[2-[3-(3,4-dichloro-phenyl)-1-(2-methoxy-benzoyl)-pyrrolidin-3-yl]-ethyl]-4-phenyl-piperidine-4-carboxylic acid amide]
- IC50 (NK1 receptor [1]): 74 nM
